Reference: patent publication US20070244103A1, “Novel Compounds Having an Anti-Bacterial Activity” (Morphochem Aktiengesellschaft Fur Kombinatorische Chemie, priority 2004, published 2007)

Assay: MIC of the examples against various organisms
Type: cell-based
Settings: against at least two of the above organisms (12-strain panel)
Description: The MIC (μg/ml) of the examples against various organisms was determined: A. baumannii ATCC19606, E. cloacae ATCC23355, E. coli ATCC25922, K. pneumoniae ATCC27736, P. mirabilis ATCC29906, P. aeruginosa ATCC27853, S. maltophilia ATCC13637, S. aureus ATCC43300, S. epidermidis ATCC14990, S. haemolyticus ATCC29970, E. faecalis ATCC29212 and E. faecium ATC19434.

Row | Structure (SMILES) | MIC [µg/mL]
1 | COc1ccc2cccc(NC(=O)C3CCCC(CNCc4ccc5c(c4)OCCO5)C3)c2n1 (stereo not drawn) [Example 110, 3-{[(2,3-Dihydro-benzo[1,4]dioxin-6-ylmethyl)-amino]-methyl}-cyclohexanecarboxylic acid (2-methoxy-quinolin-8-yl)-amide] | ≤ 2
2 | COc1ccc2ncc(Cl)c(C(O)CN3CCCC(CNCc4ccc5c(c4)OCCO5)C3)c2c1 (single isomer, unassigned) [Example 66, 1-(3-Chloro-6-methoxy-quinolin-4-yl)-2-(3-{[(2,3-dihydro-benzo[1,4]dioxin-6-ylmethyl)-amino]-methyl}-piperidin-1-yl)-ethanol] | ≤ 2
3 | COc1cnc2cccc(C(O)CN3C4CCC3CC(NCc3ccc5c(c3)NC(=O)CO5)C4)c2n1 (stereo not drawn) [Example 80, 6-({8-[2-Hydroxy-2-(3-methoxy-quinoxalin-5-yl)-ethyl]-8-aza-bicyclo[3.2.1]oct-3-ylamino}-methyl)-4H-benzo[1,4]oxazin-3-one] | ≤ 2
